# Experimental data published in the supplement of paper PMC10307832.
# How the values were obtained:
# Assay in all cases: relative viability (nuclei count vs DMSO), 5 days (fraction); higher = more cells survive
# [1] = test system: 201T
# Procedure, shortened: (§1)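 Cells from lung cancer lines were seeded into 1536-well plates and, one day later, dosed by pin tool. Treatments were either a single drug or a fixed dose of an anchor drug with five library-drug doses (not always all listed) in √10 steps. After 5 days, nuclei were stained in a one-step fixation (final 0.05% Triton X-100, 1% formaldehyde, 1 ug/ml Hoechst) and counted on 4× images, and relative viability is the treated-to-vehicle nuclei ratio, as the median of duplicate plates.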
# [2] = test system: COR-L 105
# Procedure, shortened: as §1
# [3] = test system: ChaGo-K-1
# Procedure, shortened: as §1
# [4] = test system: EPLC-272H
# Procedure, shortened: as §1
# [5] = test system: H3255
# Procedure, shortened: as §1
# [6] = test system: HCC-78
# Procedure, shortened: as §1
# [7] = test system: HCC-827
# Procedure, shortened: as §1
# [8] = test system: LC-2-ad
# Procedure, shortened: as §1
# [9] = test system: LCLC-97TM1
# Procedure, shortened: as §1
# [10] = test system: NCI-H1666
# Procedure, shortened: as §1
# [11] = test system: NCI-H1915
# Procedure, shortened: as §1
# [12] = test system: NCI-H2087
# Procedure, shortened: as §1
# [13] = test system: NCI-H2126
# Procedure, shortened: as §1
# [14] = test system: NCI-H2347
# Procedure, shortened: as §1
# [15] = test system: NCI-H23
# Procedure, shortened: as §1
# [16] = test system: NCI-H2405
# Procedure, shortened: as §1
# [17] = test system: NCI-H520
# Procedure, shortened: as §1
# [18] = test system: NCI-H647
# Procedure, shortened: as §1
# [19] = test system: NCI-H650
# Procedure, shortened: as §1
# [20] = test system: NCI-H661
# Procedure, shortened: as §1
# [21] = test system: PC-14
# Procedure, shortened: as §1
# [22] = test system: RERF-LC-KJ
# Procedure, shortened: as §1
structure (smiles),measurement,setting,value
COc1nc(C)cnc1NS(=O)(=O)c1cccnc1-c1ccc(-c2nnco2)cc1 [Zibotentan] + Nc1nc2[nH]cc(CCc3ccc(C(=O)N[C@@H](CCC(=O)O)C(=O)O)cc3)c2c(=O)[nH]1 [Pemetrexed] (partner 0.2 µM),relative viability,[1]; first compound 0.08 µM,0.327
same,relative viability,[1]; first compound 0.253 µM,0.355
same,relative viability,[1]; first compound 0.8 µM,0.247
same,relative viability,[1]; first compound 2.53 µM,0.323
same,relative viability,[2]; first compound 0.08 µM,1.08
same,relative viability,[2]; first compound 0.253 µM,0.87
same,relative viability,[2]; first compound 0.8 µM,1.21
same,relative viability,[2]; first compound 2.53 µM,1.05
same,relative viability,[3]; first compound 0.08 µM,0.261
same,relative viability,[3]; first compound 0.253 µM,0.258
same,relative viability,[3]; first compound 0.8 µM,0.275
same,relative viability,[3]; first compound 2.53 µM,0.351
same,relative viability,[4]; first compound 0.253 µM,0.319
same,relative viability,[4]; first compound 0.8 µM,0.309
same,relative viability,[4]; first compound 2.53 µM,0.405
same,relative viability,[5]; first compound 0.08 µM,0.635
same,relative viability,[5]; first compound 0.253 µM,0.549
same,relative viability,[5]; first compound 0.8 µM,0.575
same,relative viability,[5]; first compound 2.53 µM,0.56
same,relative viability,[6]; first compound 0.08 µM,0.876
same,relative viability,[6]; first compound 0.253 µM,0.892
same,relative viability,[6]; first compound 0.8 µM,0.877
same,relative viability,[6]; first compound 2.53 µM,0.889
same,relative viability,[7]; first compound 0.08 µM,0.262
same,relative viability,[7]; first compound 0.253 µM,0.272
same,relative viability,[7]; first compound 0.8 µM,0.241
same,relative viability,[7]; first compound 2.53 µM,0.294
same,relative viability,[8]; first compound 0.08 µM,0.251
same,relative viability,[8]; first compound 0.253 µM,0.286
same,relative viability,[8]; first compound 0.8 µM,0.27
same,relative viability,[8]; first compound 2.53 µM,0.274
same,relative viability,[9]; first compound 0.08 µM,0.192
same,relative viability,[9]; first compound 0.253 µM,0.181
same,relative viability,[9]; first compound 0.8 µM,0.154
same,relative viability,[9]; first compound 2.53 µM,0.175
same,relative viability,[10]; first compound 0.08 µM,0.842
same,relative viability,[10]; first compound 0.253 µM,0.726
same,relative viability,[10]; first compound 0.8 µM,0.862
same,relative viability,[10]; first compound 2.53 µM,0.829
same,relative viability,[11]; first compound 0.08 µM,0.477
same,relative viability,[11]; first compound 0.253 µM,0.493
same,relative viability,[11]; first compound 0.8 µM,0.357
same,relative viability,[11]; first compound 2.53 µM,0.526
same,relative viability,[12]; first compound 0.08 µM,0.677
same,relative viability,[12]; first compound 0.253 µM,0.666
same,relative viability,[12]; first compound 0.8 µM,0.536
same,relative viability,[12]; first compound 2.53 µM,0.746
same,relative viability,[13]; first compound 0.08 µM,0.713
same,relative viability,[13]; first compound 0.253 µM,0.657
same,relative viability,[13]; first compound 0.8 µM,0.435
same,relative viability,[13]; first compound 2.53 µM,0.78
same,relative viability,[14]; first compound 0.08 µM,0.416
same,relative viability,[14]; first compound 0.253 µM,0.463
same,relative viability,[14]; first compound 0.8 µM,0.465
same,relative viability,[14]; first compound 2.53 µM,0.471
same,relative viability,[15]; first compound 0.08 µM,0.738
same,relative viability,[15]; first compound 0.253 µM,0.395
same,relative viability,[15]; first compound 0.8 µM,0.456
same,relative viability,[15]; first compound 2.53 µM,0.915
same,relative viability,[16]; first compound 0.08 µM,1.15
same,relative viability,[16]; first compound 0.253 µM,0.975
same,relative viability,[16]; first compound 0.8 µM,1.06
same,relative viability,[16]; first compound 2.53 µM,1.21
same,relative viability,[17]; first compound 0.08 µM,0.626
same,relative viability,[17]; first compound 0.253 µM,0.665
same,relative viability,[17]; first compound 0.8 µM,0.682
same,relative viability,[17]; first compound 2.53 µM,0.695
same,relative viability,[18]; first compound 0.08 µM,0.165
same,relative viability,[18]; first compound 0.253 µM,0.171
same,relative viability,[18]; first compound 0.8 µM,0.181
same,relative viability,[18]; first compound 2.53 µM,0.201
same,relative viability,[19]; first compound 0.08 µM,0.947
same,relative viability,[19]; first compound 0.253 µM,0.927
same,relative viability,[19]; first compound 0.8 µM,0.905
same,relative viability,[19]; first compound 2.53 µM,0.977
same,relative viability,[20]; first compound 0.08 µM,0.931
same,relative viability,[20]; first compound 0.253 µM,0.881
same,relative viability,[20]; first compound 0.8 µM,0.873
same,relative viability,[20]; first compound 2.53 µM,0.912
same,relative viability,[21]; first compound 0.08 µM,0.143
same,relative viability,[21]; first compound 0.253 µM,0.12
same,relative viability,[21]; first compound 0.8 µM,0.129
same,relative viability,[21]; first compound 2.53 µM,0.144
same,relative viability,[22]; first compound 0.08 µM,0.5
same,relative viability,[22]; first compound 0.253 µM,0.464
same,relative viability,[22]; first compound 0.8 µM,0.438
same,relative viability,[22]; first compound 2.53 µM,0.481
